Values joined by “and” are separate entries in the source; they are usually repeats but may differ in a detail not shown here. Equal entries are not always repeated. Where two headings read alike, the source gives them in different places.
Experiments:
EBOV (VP30, Huh) = assay: microbe, parasite or virus in culture; type: cell-based, Ebola Virus; conditions: Zaire ebolavirus
[1] = system: Epstein-Barr virus, strain Akata; assay: microbe, parasite or virus in culture; type: cell-based; conditions: for EC90: read-out: EC90 - compound concentration that reduces viral replication by 90%
HBV = HBV (Tavis) EC50 (Table 8); type: cell-based; conditions: Hepatitis B virus
HHV-6B, Z29 = assay: microbe, parasite or virus in culture; type: cell-based, human herpesvirus 6; conditions: Human betaherpesvirus 6, MOLT-3
[2] = Cytotoxicity in HBV (Tavis) assay (Table 8); type: cell-based
BK, Gardner = assay: microbe, parasite or virus in culture; type: cell-based, BK virus (aka Human polyomavirus 1); conditions: Betapolyomavirus hominis
Akata cells = conditions: human
[3] = system: Chikungunya Virus, strain S27, ATCC VR-64; assay: microbe, parasite or virus in culture; type: cell-based
Vero cells = conditions: African green monkey
Enterovirus = assay: microbe, parasite or virus in culture; type: cell-based
[4] = system: Ebola Virus, strain Zaire; type: cell-based
CHIKV = CHIKV IC50 (Table 8); type: cell-based; conditions: Chikungunya virus
DENV2 = DENV2 IC50 (Table 8); type: cell-based, Dengue Virus 2; conditions: Dengue virus
[5] = system: MERS Coronavirus, strain EMC; type: cell-based
[6] = system: Dengue Virus 2, strain New Guinea C; type: cell-based
HPV11 replicon = type: cell-based, Human papillomavirus
[7] = human gammaherpesvirus 4, Akata

Compound: O=c1[nH]c(=O)n([C@@H]2C[C@@H](O)[C@H](CO)O2)cc1-c1cccs1 [CHK-02, 1-((2S,4R,5S)-4-hydroxy-5-(hydroxymethyl)tetrahydrofuran-2-yl)-5-(thiophen-2-yl)pyrimidine-2,4(1H,3H)-dione]
- EC50 (EBOV (VP30, Huh)): 20.6 µM
- EC50 [1, 7]: 10.7 µM
- EC50 (HBV): < 0.32 µM
- EC50 (HHV-6B, Z29): 11.1 µM
- CC50 (in vitro): > 150 µM
- CC50 [2]: > 32 µM
- EC50 (BK, Gardner): < 0.048 µM

Compound: Cc1ccc(-c2cn([C@@H]3C[C@@H](O)[C@H](CO)O3)c(=O)[nH]c2=O)s1 [CHK-03, 1-((2S,4R,5S)-4-hydroxy-5-(hydroxymethyl)tetrahydrofuran-2-yl)-5-(5-methylthiophen-2-yl)pyrimidine-2,4(1H,3H)-dione]
- CC50 (Akata cells): > 100 µM

Compound: Nc1nc(=O)n([C@@H]2C[C@@H](O)[C@H](CO)O2)cc1-c1ccco1 [CHK-05, 4-amino-5-(furan-2-yl)-1-((2S,4R,5S)-4-hydroxy-5-(hydroxymethyl)tetrahydrofuran-2-yl)pyrimidin-2(1H)-one]
- CC50 (Akata cells): > 100 µM
- EC50 [3]: > 42 µM
- EC50 ([3]; Chikungunya virus): > 68 µM
- EC90 [1, 7]: > 100 µM
- CC50 (Vero cells): > 100 µM
- EC50 (Enterovirus): 24 µM
- EC50 [4]: 18 µM
- CC50 (Huh7 cells; human): > 100 µM

Compound: Nc1nc(=O)n([C@@H]2C[C@@H](O)[C@H](CO)O2)cc1-c1cccs1 [CHK-06, 4-amino-1-((2S,4R,5S)-4-hydroxy-5-(hydroxymethyl)tetrahydrofuran-2-yl)-5-(thiophen-2-yl)pyrimidin-2(1H)-one]
- IC50 (CHIKV): 76.2 µM

Compound: Cc1ccc(-c2cn([C@@H]3C[C@@H](O)[C@H](CO)O3)c(=O)nc2N)o1 [CHK-08, 4-amino-1-((2S,4R,5S)-4-hydroxy-5-(hydroxymethyl)tetrahydrofuran-2-yl)-5-(5-methylfuran-2-yl)pyrimidin-2(1H)-one]
- IC50 (DENV2): 74 µM

Compound: Nc1ccn(C[C@@H](CO)OCP(=O)(O)O)c(=O)n1 [Cidofovir, reference compound]
- EC50 ([1]; read-out: EC50 - compound concentration that reduces viral replication by 50%): 5.94 µM
- EC90 [1]: 73.5 µM

Compound: O=c1nc(NO)ccn1[C@@H]1O[C@H](CO)[C@@H](O)[C@H]1O [EIDD-1931]
- CC50 (HVero 76 cells): >100 µg/mL
- EC50 [5]: 0.036 µg/mL and 0.034 µg/mL
- CC50 (Vero 76 cells): >10 µg/mL

Compound: NC(=O)c1nc(F)c[nH]c1=O [Favipiravir, reference compound]
- CC50 (Vero cells): > 1000 µM

Compound: C#C[C@@]1(O)[C@H](O)[C@@H](CO)O[C@H]1n1ccc2c(N)ncnc21 [NITD008]
- EC50 [6]: 0.36 µM and 0.43 µM
- CC50 (Huh7 cells): > 100 µM

Compound: Nc1nc2c(ncn2CCOCP(=O)(O)O)c(=O)[nH]1 [PMEG]
- EC50 (HPV11 replicon): 2 to 9.2 µM

Source: patent US20250109162A1, “FLEX-NUCLEOSIDE ANALOGUES, NOVEL THERAPEUTICS AGAINST VIRUSES” (UNIVERSITY OF MARYLAND, BALTIMORE COUNTY, priority 2022, published 2025)
